Structures are written as SMILES.

A short description of the series: gradient 5% acetonitrile 3 min, to 50% in 2 min, to 85% in 15 min, held 3 min, 100 µL/min. The note with it: column: Zorbax Extend-C18 2.1 x 50 mm; eluents: water / acetonitrile, 0.1% formic acid. The procedure, abridged: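 The mobile phases were water and acetonitrile, each with 0.1% formic acid, pumped at 100 μL/min through a Zorbax Extend-C18 column (2.1 × 50 mm, 1.8 μm). Pure standards were injected as mixtures of ~100 molecules and detected by a quadrupole time-of-flight mass spectrometer in positive and negative ionization mode. Retention time came from computationally picked adduct peaks, each inspected by hand.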
Turning to `O=C(NCC(c1ccc2c(c1)OCO2)N1CCN(c2ccc(F)cc2)CC1)C1CC1` (configuration not stated), the RP-LC retention time was 682 s.

`CC(=O)N1C[C@@H](C(=O)NCCCc2c(C)noc2C)[C@H](c2nc(C)no2)C1` came in with an RP-LC retention time of 626 s.

`Cc1ccc(-c2ccc(N3CCCC(C(=O)N4CCC(C)CC4)C3)nn2)cc1C` (configuration not stated): the RP-LC retention time turned out to be 792 s.

`O=C(NCc1ccccc1Cl)c1nnc(-c2ccc(S(=O)(=O)N3CCOCC3)cc2)o1` gave an RP-LC retention time of 888 s.

`CCN1CCN(C(=O)c2nnc(-c3ccc(S(=O)(=O)N4CCCCC4)cc3)o2)CC1` came in with an RP-LC retention time of 665 s.

`COc1cc(CN2CCCC2c2cc(C(C)C)no2)ccc1OCC(N)=O` (configuration not stated) came in with an RP-LC retention time of 584 s.

`CC(C)CC(=O)Nc1ccc2c(c1)N(C(=O)c1ccco1)CCC2` gave an RP-LC retention time of 802 s.

As to `O=C(CC(F)(F)F)NCCc1noc(C2CC2)n1`, the RP-LC retention time was determined as 671 s.

The compound `CCN(CC)C(=O)c1ccc2c(c1)N(CC(=O)NC1CCCCC1)C(=O)C1CCCCN21` (configuration not stated) came in with an RP-LC retention time of 838 s.

`CCOC(=O)N1CCC(Nc2c(N3CCN(c4ccccn4)CC3)c(=O)c2=O)CC1`: the RP-LC retention time stood at 572 s.

Take `CCOc1ccc(NC(=O)c2cnc(N3CCN(C4CCCCC4)CC3)nc2N)cc1`: the RP-LC retention time came to 662 s.

The compound `CCOc1ccc(-c2noc(N3CCC(C(=O)N4CCN(CC)CC4)CC3)n2)cc1OC` displayed an RP-LC retention time of 630 s.

As for `CCOC(=O)c1noc2ncnc(Nc3ccc(C)cc3)c12`, the RP-LC retention time turned out to be 1010 s.

`CS(=O)(=O)Nc1ccc([N+](=O)[O-])cc1OC1CCCCC1` showed an RP-LC retention time of 982 s.

`CCCNC(=O)c1ccccc1OCc1nc(-c2ccccc2)no1` had an RP-LC retention time of 954 s.

For the compound `O=C(Cn1ccc2ccc(N3CCOCC3)nc21)N1CCN(c2ccc(Cl)cc2)CC1`, the RP-LC retention time came to 1000 s.

`Cn1c(=O)c2nc(S(=O)(=O)CCC(=O)Nc3cc(Cl)ccc3F)n(C)c2n(C)c1=O` returned an RP-LC retention time of 771 s.

As for `COCCCN1CN=C(Nc2nc(C)c3cc(OC)ccc3n2)NC1`, the RP-LC retention time stood at 643 s.

For the compound `Cc1ccc(NC(=O)Cn2c(C)cc(-c3nnc(C4CCC4)o3)c2C)cc1C`, the RP-LC retention time is 902 s.

In the case of `O=C(Cn1cnc(-c2noc(-c3ccc(F)cc3)n2)c1)NC1CCCCC1`, the RP-LC retention time turned out to be 862 s.

`CC(C)CNC(=O)C1CCN(S(C)(=O)=O)c2cc(Cl)ccc2O1` (configuration not stated) showed an RP-LC retention time of 809 s.

For `Cc1nc(C(=O)Nc2ccc(Cl)c(C)c2)c(C)o1`, the RP-LC retention time was 1010 s.

For the compound `CN1CCN(C(CNC(=O)c2ccc(Br)o2)c2ccc(N(C)C)cc2)CC1` (configuration not stated), the RP-LC retention time amounted to 566 s.

Consider `CCCC(=O)Nc1ccc2c(c1)CCC(=O)N2CCOC`, for which the RP-LC retention time amounted to 654 s.

For the compound `CCCn1cc(C(=O)NCCCOC)c(S(=O)(=O)N2CCN(c3ccc(Cl)cc3)CC2)n1`, the RP-LC retention time stood at 1000 s.

`Cc1cc(C)nc(SCC(=O)Nc2ncc(Cc3ccc(Cl)cc3)s2)n1` yielded an RP-LC retention time of 942 s.

Compound `COc1ccc2[nH]c(I)c(CCNC(C)=O)c2c1` yielded an RP-LC retention time of 760 s.

With `CCc1ccc(-c2cc(C(F)(F)F)on2)cc1S(=O)(=O)Nc1ccc(S(N)(=O)=O)cc1`, the RP-LC retention time amounted to 947 s.

In turn, `CCn1nccc1C(=O)N1CCN(c2ncnc3c2CCC3)CC1` returned an RP-LC retention time of 556 s.

Compound `Cc1ccc(CNC(=O)CN2C(=O)CCc3cc(Br)ccc32)cc1` showed an RP-LC retention time of 917 s.

For `O=C(CNc1ccccc1)Nc1nc(-c2ccccc2)cs1`, the RP-LC retention time was 637 s.

On to `O=C(NCc1cccc(F)c1)C1CC(=O)N(c2n[nH]c3cccc(F)c23)C1` (configuration not stated), for which the RP-LC retention time is 705 s.

Compound `Cc1cc(-c2ccc(S(=O)(=O)N3CCC(C(=O)NCc4ccccc4)CC3)o2)n[nH]1` registered an RP-LC retention time of 764 s.

Take `Cc1ccc(NC(=O)Cc2nnc(-c3cnccn3)o2)c(C)c1`: the RP-LC retention time was determined as 700 s.

`Cc1ccc2[nH]cc(CCN3CC(C(=O)NC4CCCCCCC4)CC3=O)c2c1` (configuration not stated) returned an RP-LC retention time of 907 s.

`COCCN1C(=O)CCc2cc(NC(=O)Cc3ccccc3OC)ccc21` came in with an RP-LC retention time of 731 s.

In turn, `Cc1cnc2c(N)cc(C)c(C)c2c1` gave an RP-LC retention time of 715 s.

`Nc1cc(C2CCN(C(=O)NCCc3ccccc3)CC2)no1` showed an RP-LC retention time of 668 s.

`Cc1ccc(-c2nnc(-c3nn(C)c4c3CN(S(=O)(=O)c3ccccc3C)CC4)o2)cc1` had an RP-LC retention time of 1020 s.

`Cn1c(=O)c(C(=O)NC2CC2)nc2ccccc21` displayed an RP-LC retention time of 644 s.

On to `O=C(Nc1nnc(SCc2cccc(F)c2)s1)C1CCCCC1`, for which the RP-LC retention time came out at 1010 s.

`O=c1n(Cc2cccc(F)c2)nc2c(S(=O)(=O)N3CCOCC3)cccn12` returned an RP-LC retention time of 741 s.

Compound `O=C(NCCc1ccccc1)N(C1CCOCC1)C1CCN(Cc2cccc(F)c2)CC1` yielded an RP-LC retention time of 604 s.

As for `CC(C)CN1Cc2ccccc2-n2ccnc2C12CCN(C(=O)c1ccccn1)CC2`, the RP-LC retention time amounted to 631 s.

As to `CC1CCc2onc(C(=O)Nc3cccc(Cl)c3)c2C1` (configuration not stated), the RP-LC retention time amounted to 1160 s.

The compound `CCCN(C(=O)CC(=O)OCC)c1nc(-c2ccc(C)cc2)cs1` registered an RP-LC retention time of 1250 s.

As for `CCOc1ccccc1C(=O)NCC(c1ccc(N(C)C)cc1)N(C)C` (configuration not stated), the RP-LC retention time worked out at 572 s.

With `COc1ccccc1CC(=O)NC1CCN(c2cc(-c3ccccc3)[nH]n2)C1` (configuration not stated), the RP-LC retention time came to 688 s.

`Cc1ccc(NC(=O)N2CCc3nc(-c4ccccc4)ncc3C2)c(Cl)c1` showed an RP-LC retention time of 1080 s.

The compound `COc1nccnc1N1CCC(NC(=O)Cc2ccsc2)C1` (configuration not stated) registered an RP-LC retention time of 611 s.

Turning to `CCN1CCCc2cc(C(=O)NC3CCCC3)sc21`, the RP-LC retention time is 961 s.

In turn, `COC(=O)c1cccc(NC(=O)Nc2c(-c3cccnc3)[nH]c3ccccc23)c1` yielded an RP-LC retention time of 667 s.

`CC(=O)c1cccc(NC(=O)Cn2c(=O)n(-c3cccc(C)c3)c(=O)c3c2cc(C)n3C)c1` returned an RP-LC retention time of 796 s.

On to `Cn1ncc2c(N3CCCCC3)nc(C(=O)N3CCN(c4ccc(F)cc4)CC3)nc21`, for which the RP-LC retention time is 894 s.

As for `CN1C(=O)c2cccnc2Sc2cc(NC(=O)CCc3ccccc3)ccc21`, the RP-LC retention time worked out at 818 s.

Compound `CCCn1cc(C(=O)Nc2ccccc2CC)c2cccnc21` displayed an RP-LC retention time of 919 s.

On to `CCc1nn2c(CNC(=O)C3CCCO3)c(-c3ccccc3)nc2s1` (configuration not stated), for which the RP-LC retention time stood at 765 s.

Compound `CCC1(C(=O)Nc2ccc(C)cc2)CCCCC(=O)N1` (configuration not stated) displayed an RP-LC retention time of 736 s.

Compound `CC(C)CNC(=O)Cc1cn(C)c2ncccc12` gave an RP-LC retention time of 595 s.

`O=C(Nc1ccc2c(c1)OCCO2)N1CC(c2nc(CCOCc3ccccc3)no2)C1` yielded an RP-LC retention time of 853 s.

As for `COc1ccc(/C=C/c2nc3sc4c(c3c(=O)o2)CCCC4)cc1OC`, the RP-LC retention time amounted to 1250 s.

In turn, `CC(C)(Cc1ccc2ccccc2c1)NC[C@@H](O)COc1cccc(Cl)c1C#N` returned an RP-LC retention time of 857 s.

(Values after the METLIN SMRT retention time set (Domingo-Almenara et al. 2019).)
